Experimental data taken from patent US20220242870A1, “HETEROCYCLE-FUSED PYRIMIDINE DERIVATIVE AND USE THEREOF” (VORONOI Inc., priority 2019, published 2022).

Experiments:
Test in all cases: scanMAX kinase assay panel
Assay type in all cases: binding
[1] = biological target: T1, EGFR(E746-A750del) (Homo sapiens, UniProt P00533, DEL746-750); conditions: read-out: control percentage (% control)
T1 construct: purchased DiscoverX scanMAX kinase assay panel
Description: (§1) The activities of the compounds according to the present invention to more diverse enzymes were evaluated. Specifically, it was decided that the enzyme selectivity of Example 74 selected from the compounds of Examples 1 to 129 was measured at the request of DiscoverX, and the experiment was conducted using a scanMAX™ kinase assay panel. At this time, as a drug to treat the enzyme, a solution prepared by dissolving in DMSO at a concentration of 1 μM was used, and the control percentage (% control) was determined by the method of Equation 1 below, and the results were shown in Table 2 below.
(§2) In Equation above, the positive control and negative control mean compounds showing control percentages of 0% and 100% as DMSO, respectively.

[2] = biological target: T2, CSNK1G2 (Homo sapiens, UniProt P78368); conditions: read-out: control percentage (% control)
T2 construct: purchased DiscoverX (scanMAX panel, contract assay)
Description: as §1, §2

[3] = biological target: T3, CDK4-cyclinD3 (Homo sapiens, UniProt P11802); conditions: read-out: control percentage (% control)
T3 construct: purchased DiscoverX (scanMAX panel, contract assay)
Description: as §1, §2

[4] = biological target: T4, SNARK (Homo sapiens, UniProt Q9H093); conditions: read-out: control percentage (% control)
T4 construct: purchased DiscoverX
Description: as §1, §2

[5] = biological target: T5, MLK1 (Homo sapiens, UniProt P80192); conditions: read-out: control percentage (% control)
T5 construct: purchased DiscoverX scanMAX kinase assay panel
Description: as §1, §2

[6] = biological target: T6, PAK3 (Homo sapiens, UniProt O75914); conditions: read-out: control percentage (% control)
T6 construct: purchased DiscoverX scanMAX kinase assay panel
Description: as §1, §2

[7] = biological target: T7, MEK1 (Homo sapiens, UniProt Q02750); conditions: read-out: control percentage (% control)
T7 construct: purchased DiscoverX scanMAX kinase assay panel
Description: as §1, §2

[8] = biological target: T8, CIT (Homo sapiens, UniProt O14578); conditions: read-out: control percentage (% control)
T8 construct: purchased DiscoverX (scanMAX panel, contract assay)
Description: as §1, §2

[9] = biological target: T9, CLK4 (Homo sapiens, UniProt Q9HAZ1); conditions: read-out: control percentage (% control)
T9 construct: purchased DiscoverX (scanMAX panel, contract assay)
Description: as §1, §2

[10] = biological target: T10, MET(M1250T) (Homo sapiens, UniProt P08581, M1250T); conditions: read-out: control percentage (% control)
T10 construct: purchased DiscoverX scanMAX kinase assay panel
Description: as §1, §2

[11] = biological target: T11, ABL1(T315I)-nonphosphorylated (Homo sapiens, UniProt P00519, T315I); conditions: read-out: control percentage (% control)
T11 construct: purchased DiscoverX (scanMAX panel, contract assay)
Description: as §1, §2

[12] = biological target: T12, EGFR(L861Q) (Homo sapiens, UniProt P00533, L861Q); conditions: read-out: control percentage (% control)
T12 construct: purchased DiscoverX scanMAX kinase assay panel
Description: as §1, §2

[13] = biological target: T13, TNIK (Homo sapiens, UniProt Q9UKE5); conditions: read-out: control percentage (% control)
T13 construct: purchased DiscoverX
Description: as §1, §2

[14] = biological target: T14, TRKB (Homo sapiens, UniProt Q16620); conditions: read-out: control percentage (% control)
T14 construct: purchased DiscoverX
Description: as §1, §2

[15] = biological target: T15, PIP5K2B (Homo sapiens, UniProt P78356); conditions: read-out: control percentage (% control)
T15 construct: purchased DiscoverX scanMAX kinase assay panel
Description: as §1, §2

[16] = biological target: T16, ALK(C1156Y) (Homo sapiens, UniProt Q9UM73, C1156Y); conditions: read-out: control percentage (% control)
T16 construct: purchased DiscoverX (scanMAX panel, contract assay)
Description: as §1, §2

[17] = biological target: T17, MET(Y1235D) (Homo sapiens, UniProt P08581, Y1235D); conditions: read-out: control percentage (% control)
T17 construct: purchased DiscoverX scanMAX kinase assay panel
Description: as §1, §2

[18] = biological target: T18, FLT3(K663Q) (Homo sapiens, UniProt P36888, K663Q); conditions: read-out: control percentage (% control)
T18 construct: purchased DiscoverX scanMAX kinase assay panel
Description: as §1, §2

[19] = biological target: T19, FES (Homo sapiens, UniProt P07332); conditions: read-out: control percentage (% control)
T19 construct: purchased DiscoverX scanMAX kinase assay panel
Description: as §1, §2

[20] = biological target: T20, PIP5K1A (Homo sapiens, UniProt Q99755); conditions: read-out: control percentage (% control)
T20 construct: purchased DiscoverX scanMAX kinase assay panel
Description: as §1, §2

[21] = biological target: T21, ROCK2 (Homo sapiens, UniProt O75116); conditions: read-out: control percentage (% control)
T21 construct: purchased DiscoverX scanMAX kinase assay panel
Description: as §1, §2

[22] = biological target: T22, MAP3K2 (Homo sapiens, UniProt Q9Y2U5); conditions: read-out: control percentage (% control)
T22 construct: purchased DiscoverX scanMAX kinase assay panel
Description: as §1, §2

[23] = biological target: T23, MET (Homo sapiens, UniProt P08581); conditions: read-out: control percentage (% control)
T23 construct: purchased DiscoverX scanMAX kinase assay panel
Description: as §1, §2

[24] = biological target: T24, PIK4CB (Homo sapiens, UniProt Q9UBF8); conditions: read-out: control percentage (% control)
T24 construct: purchased DiscoverX scanMAX kinase assay panel
Description: as §1, §2

[25] = biological target: T25, CDK4 (Homo sapiens, UniProt P11802); conditions: read-out: control percentage (% control)
T25 construct: purchased DiscoverX (scanMAX panel, contract assay)
Description: as §1, §2

[26] = biological target: T26, RET(V804L) (Homo sapiens, UniProt P07949, V804L); conditions: read-out: control percentage (% control)
T26 construct: purchased DiscoverX scanMAX kinase assay panel
Description: as §1, §2

[27] = biological target: T27, VRK2 (Homo sapiens, UniProt Q86Y07); conditions: read-out: control percentage (% control)
T27 construct: purchased DiscoverX
Description: as §1, §2

[28] = biological target: T28, FLT3 (Homo sapiens, UniProt P36888); conditions: read-out: control percentage (% control)
T28 construct: purchased DiscoverX scanMAX kinase assay panel
Description: as §1, §2

[29] = biological target: T29, AXL (Homo sapiens, UniProt P30530); conditions: read-out: control percentage (% control)
T29 construct: purchased DiscoverX (scanMAX panel, contract assay)
Description: as §1, §2

[30] = test system: FLT3(ITD); conditions: 1 μM
Description: as §1, §2

[31] = biological target: T30, RSK3(Kin.Dom.2-C-terminal) (Homo sapiens, UniProt Q15349); conditions: read-out: control percentage (% control)
T30 construct: RSK3(Kin.Dom.2-C-terminal); purchased DiscoverX scanMAX kinase assay panel
Description: as §1, §2

[32] = biological target: T31, LTK (Homo sapiens, UniProt P29376); conditions: read-out: control percentage (% control)
T31 construct: purchased DiscoverX scanMAX kinase assay panel
Description: as §1, §2

[33] = biological target: T32, ABL1(H396P)-nonphosphorylated (Homo sapiens, UniProt P00519, H396P); conditions: read-out: control percentage (% control)
T32 construct: purchased DiscoverX (scanMAX panel, contract assay)
Description: as §1, §2

[34] = biological target: T33, MUSK (Homo sapiens, UniProt O15146); conditions: read-out: control percentage (% control)
T33 construct: purchased DiscoverX scanMAX kinase assay panel
Description: as §1, §2

[35] = biological target: T34, MAP4K4 (Homo sapiens, UniProt O95819); conditions: read-out: control percentage (% control)
T34 construct: purchased DiscoverX scanMAX kinase assay panel
Description: as §1, §2

T34 sequence (O95819 whole entry): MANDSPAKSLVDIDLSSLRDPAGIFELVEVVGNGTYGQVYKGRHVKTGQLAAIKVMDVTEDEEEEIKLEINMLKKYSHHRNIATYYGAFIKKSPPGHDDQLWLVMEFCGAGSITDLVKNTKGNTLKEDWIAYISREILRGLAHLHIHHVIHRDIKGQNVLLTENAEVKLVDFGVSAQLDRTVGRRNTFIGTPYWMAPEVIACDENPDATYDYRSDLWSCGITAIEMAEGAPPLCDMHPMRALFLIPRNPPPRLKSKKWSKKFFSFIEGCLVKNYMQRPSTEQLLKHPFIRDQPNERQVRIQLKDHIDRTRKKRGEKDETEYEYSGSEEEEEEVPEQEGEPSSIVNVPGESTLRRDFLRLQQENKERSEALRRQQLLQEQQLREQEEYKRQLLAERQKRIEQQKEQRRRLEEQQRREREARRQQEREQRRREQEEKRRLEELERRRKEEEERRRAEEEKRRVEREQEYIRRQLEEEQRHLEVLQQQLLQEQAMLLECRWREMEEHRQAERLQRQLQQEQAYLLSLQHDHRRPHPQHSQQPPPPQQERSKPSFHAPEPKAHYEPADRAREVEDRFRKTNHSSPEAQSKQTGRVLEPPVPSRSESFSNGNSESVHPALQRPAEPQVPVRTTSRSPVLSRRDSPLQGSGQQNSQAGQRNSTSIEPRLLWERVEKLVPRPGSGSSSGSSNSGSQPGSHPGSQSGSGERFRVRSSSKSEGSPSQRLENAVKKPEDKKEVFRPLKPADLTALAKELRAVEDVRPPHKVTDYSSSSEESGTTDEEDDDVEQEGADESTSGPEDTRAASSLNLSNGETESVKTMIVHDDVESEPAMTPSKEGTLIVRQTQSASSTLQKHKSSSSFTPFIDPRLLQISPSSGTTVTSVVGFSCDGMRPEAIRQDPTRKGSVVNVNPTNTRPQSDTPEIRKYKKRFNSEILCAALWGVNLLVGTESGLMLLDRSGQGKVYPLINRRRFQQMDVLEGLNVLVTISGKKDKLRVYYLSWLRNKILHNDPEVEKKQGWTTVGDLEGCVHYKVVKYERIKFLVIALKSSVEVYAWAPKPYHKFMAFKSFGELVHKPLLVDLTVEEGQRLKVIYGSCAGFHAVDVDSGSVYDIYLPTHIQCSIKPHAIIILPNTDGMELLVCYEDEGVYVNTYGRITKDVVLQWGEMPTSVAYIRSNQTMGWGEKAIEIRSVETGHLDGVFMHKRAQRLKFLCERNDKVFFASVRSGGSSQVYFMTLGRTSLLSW
T10 sequence (P08581 25-1390 M1250T): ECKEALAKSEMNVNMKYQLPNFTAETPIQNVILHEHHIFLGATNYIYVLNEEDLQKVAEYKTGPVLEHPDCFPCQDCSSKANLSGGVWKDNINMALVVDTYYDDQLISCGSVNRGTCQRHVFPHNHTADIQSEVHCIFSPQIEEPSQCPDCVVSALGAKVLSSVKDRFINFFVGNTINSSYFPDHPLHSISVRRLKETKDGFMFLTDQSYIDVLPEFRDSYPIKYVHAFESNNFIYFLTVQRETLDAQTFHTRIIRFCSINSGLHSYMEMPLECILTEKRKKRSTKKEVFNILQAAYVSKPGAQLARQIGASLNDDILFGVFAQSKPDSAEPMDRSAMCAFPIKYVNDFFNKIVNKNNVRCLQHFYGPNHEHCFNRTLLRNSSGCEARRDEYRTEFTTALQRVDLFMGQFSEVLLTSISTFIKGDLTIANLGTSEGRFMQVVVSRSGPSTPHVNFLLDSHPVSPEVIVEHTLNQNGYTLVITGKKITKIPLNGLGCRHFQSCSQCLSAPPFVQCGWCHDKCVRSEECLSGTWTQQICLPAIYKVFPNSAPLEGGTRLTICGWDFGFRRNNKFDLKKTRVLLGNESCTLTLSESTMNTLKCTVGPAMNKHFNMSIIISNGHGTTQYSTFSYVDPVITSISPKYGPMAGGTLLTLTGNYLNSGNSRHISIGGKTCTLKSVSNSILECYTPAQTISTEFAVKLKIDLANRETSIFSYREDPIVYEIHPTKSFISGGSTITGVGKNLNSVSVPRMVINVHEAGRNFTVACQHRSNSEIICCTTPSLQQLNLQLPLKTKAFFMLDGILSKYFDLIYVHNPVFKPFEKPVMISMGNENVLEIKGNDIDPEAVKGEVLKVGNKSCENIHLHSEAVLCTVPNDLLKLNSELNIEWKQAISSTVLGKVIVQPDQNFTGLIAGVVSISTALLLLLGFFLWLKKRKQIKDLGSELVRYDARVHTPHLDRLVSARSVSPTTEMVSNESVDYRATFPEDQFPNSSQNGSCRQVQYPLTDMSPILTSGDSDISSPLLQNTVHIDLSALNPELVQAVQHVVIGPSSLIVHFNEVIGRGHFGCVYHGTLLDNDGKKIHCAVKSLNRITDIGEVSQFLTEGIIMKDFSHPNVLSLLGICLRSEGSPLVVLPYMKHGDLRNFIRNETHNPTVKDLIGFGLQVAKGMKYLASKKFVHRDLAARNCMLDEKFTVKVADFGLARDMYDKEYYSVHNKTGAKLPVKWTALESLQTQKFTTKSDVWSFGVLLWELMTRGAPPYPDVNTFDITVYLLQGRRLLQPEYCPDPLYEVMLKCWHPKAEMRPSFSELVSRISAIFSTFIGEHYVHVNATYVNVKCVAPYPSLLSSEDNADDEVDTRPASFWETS
T2 sequence (P78368 whole entry): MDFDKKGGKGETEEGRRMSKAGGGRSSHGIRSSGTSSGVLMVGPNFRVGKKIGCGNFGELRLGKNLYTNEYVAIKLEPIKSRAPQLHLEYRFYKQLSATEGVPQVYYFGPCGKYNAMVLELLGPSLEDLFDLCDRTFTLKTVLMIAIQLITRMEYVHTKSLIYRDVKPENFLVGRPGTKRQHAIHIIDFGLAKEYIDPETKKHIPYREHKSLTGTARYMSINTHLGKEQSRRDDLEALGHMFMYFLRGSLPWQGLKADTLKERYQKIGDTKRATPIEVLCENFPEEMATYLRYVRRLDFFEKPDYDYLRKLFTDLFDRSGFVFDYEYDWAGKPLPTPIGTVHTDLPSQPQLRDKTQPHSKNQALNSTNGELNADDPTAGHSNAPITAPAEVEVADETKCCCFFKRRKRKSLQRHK
T17 sequence (P08581 25-1390 Y1235D): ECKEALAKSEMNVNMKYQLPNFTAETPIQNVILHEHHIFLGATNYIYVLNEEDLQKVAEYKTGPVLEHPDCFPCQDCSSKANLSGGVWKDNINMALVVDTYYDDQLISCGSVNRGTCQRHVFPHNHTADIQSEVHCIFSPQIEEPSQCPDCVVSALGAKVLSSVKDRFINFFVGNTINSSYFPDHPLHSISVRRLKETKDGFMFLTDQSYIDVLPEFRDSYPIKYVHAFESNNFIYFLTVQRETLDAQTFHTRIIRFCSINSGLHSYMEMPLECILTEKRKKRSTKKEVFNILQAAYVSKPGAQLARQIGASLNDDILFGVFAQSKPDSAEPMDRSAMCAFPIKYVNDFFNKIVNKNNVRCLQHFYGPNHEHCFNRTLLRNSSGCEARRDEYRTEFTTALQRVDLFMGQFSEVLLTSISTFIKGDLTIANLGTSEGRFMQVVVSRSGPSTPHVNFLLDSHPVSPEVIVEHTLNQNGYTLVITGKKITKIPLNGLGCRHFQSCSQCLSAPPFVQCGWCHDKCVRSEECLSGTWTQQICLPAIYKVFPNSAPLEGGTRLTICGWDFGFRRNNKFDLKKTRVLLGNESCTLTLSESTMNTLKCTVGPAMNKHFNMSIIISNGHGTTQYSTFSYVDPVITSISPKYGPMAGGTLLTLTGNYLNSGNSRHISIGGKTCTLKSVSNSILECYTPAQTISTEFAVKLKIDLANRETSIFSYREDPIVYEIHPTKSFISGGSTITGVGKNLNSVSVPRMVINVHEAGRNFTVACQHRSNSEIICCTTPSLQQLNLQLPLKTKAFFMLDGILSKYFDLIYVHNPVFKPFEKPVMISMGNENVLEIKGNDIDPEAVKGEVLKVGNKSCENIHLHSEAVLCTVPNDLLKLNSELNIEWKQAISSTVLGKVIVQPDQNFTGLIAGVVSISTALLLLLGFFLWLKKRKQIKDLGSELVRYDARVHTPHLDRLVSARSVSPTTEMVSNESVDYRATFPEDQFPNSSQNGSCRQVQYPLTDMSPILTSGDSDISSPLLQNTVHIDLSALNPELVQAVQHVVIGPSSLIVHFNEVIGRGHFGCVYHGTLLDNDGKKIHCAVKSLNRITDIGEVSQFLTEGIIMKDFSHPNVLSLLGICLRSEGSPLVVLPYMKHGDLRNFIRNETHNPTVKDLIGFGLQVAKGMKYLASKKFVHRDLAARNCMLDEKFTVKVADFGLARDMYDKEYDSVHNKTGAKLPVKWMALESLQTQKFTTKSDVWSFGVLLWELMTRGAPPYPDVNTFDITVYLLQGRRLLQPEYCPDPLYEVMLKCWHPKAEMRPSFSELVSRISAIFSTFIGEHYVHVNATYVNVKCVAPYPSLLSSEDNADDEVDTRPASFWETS
T3 sequence (P11802 whole entry): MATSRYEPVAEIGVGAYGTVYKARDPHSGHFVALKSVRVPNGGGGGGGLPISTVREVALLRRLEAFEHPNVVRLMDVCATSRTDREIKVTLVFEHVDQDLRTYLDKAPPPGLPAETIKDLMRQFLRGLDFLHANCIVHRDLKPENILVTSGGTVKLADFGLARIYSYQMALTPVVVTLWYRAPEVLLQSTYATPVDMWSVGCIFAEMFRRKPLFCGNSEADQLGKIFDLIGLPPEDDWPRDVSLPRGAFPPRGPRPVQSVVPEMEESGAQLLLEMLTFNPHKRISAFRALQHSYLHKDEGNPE
T3 sequence (P30281 whole entry partner): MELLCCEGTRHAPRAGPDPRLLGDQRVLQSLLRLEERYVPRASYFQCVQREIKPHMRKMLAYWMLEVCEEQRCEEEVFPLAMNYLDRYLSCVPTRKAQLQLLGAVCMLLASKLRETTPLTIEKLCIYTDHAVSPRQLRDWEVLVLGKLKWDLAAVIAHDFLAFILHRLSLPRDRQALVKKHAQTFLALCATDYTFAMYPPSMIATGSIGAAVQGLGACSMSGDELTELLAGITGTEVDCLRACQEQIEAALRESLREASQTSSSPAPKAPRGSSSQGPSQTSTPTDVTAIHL
T25 sequence (P11802 whole entry): as the sequence (P11802 whole entry) above

CN1CCN(c2ccc(Nc3nc(N4OCC[C@H]4c4ccccc4)c4cc[nH]c4n3)cc2)CC1 [Example 74, (S)-N-(4-(4-methylpiperazin-1-yl)phenyl)-4-(3-phenylisoxazolidin-2-yl)-7H-pyrrolo[2,3-d]pyrimidin-2-amine]
remaining binding at 1 µM [1]: 0%
remaining binding at 1 µM [2]: 21%
remaining binding at 1 µM [3]: 3%
remaining binding at 1 µM [4]: 3.7%
remaining binding at 1 µM [5]: 24%
remaining binding at 1 µM [6]: 23%
remaining binding at 1 µM [7]: 16%
remaining binding at 1 µM [8]: 0.3%
remaining binding at 1 µM [9]: 6.4%
remaining binding at 1 µM [10]: 11%
remaining binding at 1 µM [11]: 29%
remaining binding at 1 µM [12]: 30%
remaining binding at 1 µM [13]: 27%
remaining binding at 1 µM [14]: 8.3%
remaining binding at 1 µM [15]: 18%
remaining binding at 1 µM [16]: 15%
remaining binding at 1 µM [17]: 7%
remaining binding at 1 µM [18]: 2.3%
remaining binding at 1 µM [19]: 32%
remaining binding at 1 µM [20]: 1.2%
remaining binding at 1 µM [21]: 8%
remaining binding at 1 µM [22]: 14%
remaining binding at 1 µM [23]: 4.5%
remaining binding at 1 µM [24]: 16%
remaining binding at 1 µM [25]: 10%
remaining binding at 1 µM [26]: 5.3%
remaining binding at 1 µM [27]: 33%
remaining binding at 1 µM [28]: 3.9%
remaining binding at 1 µM [29]: 3.2%
control percentage (% control) [30]: 0.45%
remaining binding at 1 µM [31]: 17%
remaining binding at 1 µM [32]: 27%
remaining binding at 1 µM [33]: 18%
remaining binding at 1 µM [34]: 0.4%
remaining binding at 1 µM [35]: 30%
